Assay results: patent publication US4139605A, “Water-soluble, non-ionizing, radiopaque compounds and contrast compositions containing the same” (Bracco Industria Chimica S.p.A., priority 1977, dated 1979)
Values after ≈ are worked out from the molar mass of the structure shown. “Also recorded” adds a separate entry of the source. Like-named read-outs stand apart in the source and are kept apart here.

Legend:
[1] = Osmotic pressure of aqueous solutions at 37° C.; format: physicochemical
Experimental: (§1) Toxicity is listed as LD50 in mg I/kg body weight 12 days after intravenous injection and 48 hours after intracerebral injection in mice. The osmotic pressure was determined at 37° C. in solutions containing 400 mg I per ml, unless specifically noted otherwise, and is indicated in atmospheres.

[2] = system: mouse; assay: Toxicity, LD50 48 hours after intracerebral injection in mice; format: in vivo; settings: 48 hours after injection
Experimental: as §1

[3] = Solubility in water, methanol and ethanol; format: physicochemical
[4] = General toxicity and side effects; format: in vivo; settings: in words
[5] = Stability and storage life of solutions; format: physicochemical; settings: aqueous solutions
[6] = Viscosity of aqueous solutions at body temperature; format: physicochemical; settings: aqueous solutions containing
[7] = system: mouse; assay: Toxicity, LD50 12 days after intravenous injection in mice; format: in vivo; settings: 12 days after injection
Experimental: Properties of compounds A, B, C, D of this invention, of the chemically nearest known compounds E, F, and of chemically less closely related known radiopaque compounds G, H, I used heretofore for visualizing blood vessels and cavities of the spinal cord and the brain are listed in the Table hereinbelow. Toxicity is listed as LD50 in mg I/kg body weight 12 days after intravenous injection and 48 hours after intracerebral injection in mice. The osmotic pressure was determined at 37° C. in solutions containing 400 mg I per ml, unless specifically noted otherwise, and is indicated in atmospheres.

[8] = system: rabbits; assay: Intracisternal toxicity, LD50 (48 hours) in rabbits; format: in vivo
Experimental: The preferred compounds of the invention are those identified in the table above by letters B and C. […] LD50 (48 hours) in rabbits is about 233 mg I per kg.

[9] = water, 20° C., read-out: solubility in water

Row | SMILES | Osmotic pressure ([1]; 400 mg I per ml) [atm.] | Toxicity, LD50, intracerebral [2] [mg I/kg] | solubility in water ([3]; water, in words) | Toxicity, LD50, intravenous [7] [mg I/kg] | other results
1 | CC(O)C(=O)Nc1c(I)c(C(=O)NCCOCCOCCNC(=O)c2c(I)c(NC(=O)C(C)O)c(I)c(C(=O)NC(CO)CO)c2I)c(I)c(C(=O)NC(CO)CO)c1I (stereo not shown) [Compound A, 1,8-bis-[5,-(1,3-dihydroxyisopropyl)aminocarbonyl-3-(2-hydroxypropionyl)amino-2,4,6-triiodo-benzoylamino]-3,6,dioxaoctane] | 8.15 | 1100 |  |  | solubility in ethanol ([3]; boiling ethanol): about 2.5%; solubility in ethanol ([3]; ethanol, in words): sparingly soluble in ethanol; solubility in ethanol ([3]; ethanol, room temperature): about 1%; solubility in methanol ([3]; methanol, in words): soluble in methanol; solubility [3, 9]: ~500 mg/mL (≈ 329 mM); solubility ([3]; water, boiling temperature, read-out: solubility in water): ~1000 mg/mL (≈ 658 mM)
2 | CC(O)C(=O)Nc1c(I)c(C(=O)NCCCOCCOCCOCCOCCCNC(=O)c2c(I)c(NC(=O)C(C)O)c(I)c(C(=O)NC(CO)CO)c2I)c(I)c(C(=O)NC(CO)CO)c1I (stereo not shown) [Compound B, 1,16-bis-[5-(1,3-dihydroxyisopropyl)aminocarbonyl-3-(2-hydroxypropionyl)amino-2,4,6-triiodobenzoylamino]-4,7,10,13-tetraoxahexadecane] |  | 990 |  |  | side effects [4]: lack of side effects; solubility ([3]; methanol, organic solvent or mixture, boiling methanol, read-out: solubility in methanol): 500 mg/mL (≈ 306 mM); solubility [3, 9]: ~1000 mg/mL (≈ 611 mM); stability of solutions [5]: stable; storage life of solutions [5]: long storage life; viscosity [6]: relatively low viscosity
3 | CC(O)C(=O)Nc1c(I)c(C(=O)NC(CO)CO)c(I)c(C(=O)N(C)CCOCCOCCOCCN(C)C(=O)c2c(I)c(NC(=O)C(C)O)c(I)c(C(=O)NC(CO)CO)c2I)c1I (stereo not shown) [Compound C, 1,11-bis [N-methyl-N-{5-(1,3-dihydroxyisopropyl)aminocarbonyl-3-(2-hydroxypropionyl)amino-2,4,6-triiodobenzoyl}-amino]-3,6,9-trioxaundecane] | 10.59 | 1130 | dissolves readily in water | 14000 | side effects [4]: lack of side effects; solubility in ethanol ([3]; ethanol, in words): only moderately well in ethanol; stability of solutions [5]: stable; storage life of solutions [5]: long storage life; viscosity [6]: relatively low viscosity; intracisternal toxicity ([8]; in words): particularly low; LD50 (48 hours), intracisternal ([8]; rabbits, 48 hours): about 233 mg I per kg
4 | CC(O)C(=O)Nc1c(I)c(C(=O)NC(CO)CO)c(I)c(C(=O)N(C)CCCOCCOCCOCCOCCCN(C)C(=O)c2c(I)c(NC(=O)C(C)O)c(I)c(C(=O)NC(CO)CO)c2I)c1I (stereo not shown) [Compound D, 1,16-bis-[N-methyl-N-{5-(1,3-dihydroxyisopropyl)aminocarbonyl-3-(2-hydroxypropionyl)amino-2,4,6-triiodobenzoyl}amino]-4,7,10,13-tetraoxahexadecane] | 9.42 | 1420 | dissolves very readily in water; also recorded: readily dissolved in water |  | solubility in methanol ([3]; methanol, in words): soluble in methanol
5 | CC(O)C(=O)Nc1c(I)c(C(=O)NC(CO)CO)c(I)c(C(=O)NC(CO)CO)c1I (stereo not drawn) [E, 5-α-hydroxypropionylamino-2,4,6-triiodo-isophthalic acid-bis-(1,3-dihydroxyisopropylamide)] | 22.2 | 1500 |  | 21800 | 
6 | CC(O)C(=O)Nc1c(I)c(C(=O)NCCCOCCOCCOCCOCCCNC(=O)c2c(I)c(NC(=O)C(C)O)c(I)c(C(=O)NC(C)(CO)CO)c2I)c(I)c(C(=O)NC(C)(CO)CO)c1I (stereo not shown) [Example 9, 1,16-bis-[5-(1,3-dihydroxy-2-methyl-2propyl)aminocarbonyl-3-(2-hydroxypropionyl)amino-2,4,6-triiodo-benzoylamino]-4,7,10,13tetraoxahexadecane] |  |  | dissolves readily in water |  | 
7 | CC(O)C(=O)Nc1c(I)c(C(=O)NCCOCCOCCOCCOCCNC(=O)c2c(I)c(NC(=O)C(C)O)c(I)c(C(=O)NC(C)(CO)CO)c2I)c(I)c(C(=O)NC(C)(CO)CO)c1I (stereo not shown) [Example 10, 1,14-bis-[5-(1,3-dihydroxy-2methyl-2-propyl)aminocarbonyl-3-(2-hydroxypropionyl)amino-2,4,6-triiodo-benzoylamino]-3,6,9,12-tetraoxatetradecane] |  |  | dissolved readily in water |  | 
8 | CC(O)C(=O)Nc1c(I)c(C(=O)NCCOCCNC(=O)c2c(I)c(NC(=O)C(C)O)c(I)c(C(=O)NC(C)(CO)CO)c2I)c(I)c(C(=O)NC(C)(CO)CO)c1I (stereo not shown) [Example 11, 1,5-Bis-[5-(1,3-dihydroxy-2-methyl-2-propyl)aminocarbonyl-3-(2-hydroxypropionyl)amino-2,4,6-triiodo-benzoylamino]-3-oxapentane] |  |  |  |  | solubility ([3]; water, per 100 ml, 20° C., read-out: solubility in water): > 1000 mg/mL
9 | O=C(CO)Nc1c(I)c(C(=O)NCCOCCOCCOCCOCCNC(=O)c2c(I)c(NC(=O)CO)c(I)c(C(=O)NC(CO)CO)c2I)c(I)c(C(=O)NC(CO)CO)c1I [Example 12, 1,14-bis-[5-(1,3-dihydroxyisopropyl)aminocarbonyl-3-hydroxy-acetylamino-2,4,6-triiodo-benzoylamino]-3,6,9,12-tetraoxa-tetradecane] |  |  | readily dissolved in water |  | 
10 | CC(=O)Nc1c(I)c(C(=O)N[C@H]2C(O)O[C@H](CO)[C@@H](O)[C@@H]2O)c(I)c(N(C)C(C)=O)c1I (stereo partly shown) [F, 3-acetylamino-5-N-methyl-acetylamino-2,4,6-triiodo-benzoyl-glucosamine] | 14.7 | 1400 |  | 10200 | 
11 | CNC(=O)c1c(I)c(NC(=O)CCCCC(=O)Nc2c(I)c(C(=O)O)c(I)c(C(=O)NC)c2I)c(I)c(C(=O)O)c1I [G, 5,5'-adipoyldiimino-bis-(2,4,6-triiodo-N-methyl-isophthalamic acid)] |  | 600 |  | 5500 | Osmotic pressure ([1]; 280 mg I/ml): 27.5 atm.
12 | CNC(=O)c1c(I)c(NC(=O)CN(CC(=O)Nc2c(I)c(C(=O)O)c(I)c(C(=O)NC)c2I)CC(=O)Nc2c(I)c(C(=O)O)c(I)c(C(=O)NC)c2I)c(I)c(C(=O)O)c1I [H, 5,5',5"-(nitrilotriacetyl-triimino-tris-)-2,4,6-triiodo-N'-methyl-isophthalamic acid] | 36.2 |  |  | 5800 | 
13 | CC(=O)Nc1c(I)c(NC(C)=O)c(I)c(C(=O)O)c1I [I, 3,5-bis-acetylamino-2,4,6-triiodobenzoic acid] |  |  |  | 7600 | 
